PubChem BioAssay (NCI)
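Method: 48-hour compound exposure of cells in 96-well plates, five concentrations, linear interpolation of endpoints. Here, GI50 denotes the concentration required for 50% inhibition of growth. Definition used: TGI = concentration required for complete inhibition of growth.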

What was measured:
Assay in all cases: DTP human tumour cell line panel, 48 h
HCT-15 colon = tested on: HCT-15 colon
SF-539 CNS = tested on: SF-539 CNS
HOP-18 NSCLC = tested on: HOP-18 NSCLC
HCT-116 colon = tested on: HCT-116 colon
OVCAR-3 ovarian = tested on: OVCAR-3 ovarian
NCI-H23 lung = tested on: NCI-H23 lung
OVCAR-8 ovarian = tested on: OVCAR-8 ovarian
KM20L2 colon = tested on: KM20L2 colon
IGROV1 ovarian = tested on: IGROV1 ovarian
NCI-H522 lung = tested on: NCI-H522 lung
TK-10 renal = tested on: TK-10 renal
NCI-H226 lung = tested on: NCI-H226 lung
SNB-19 CNS = tested on: SNB-19 CNS
HT29 colon = tested on: HT29 colon
SW-620 colon = tested on: SW-620 colon
DLD-1 colon = tested on: DLD-1 colon
SK-MEL-28 melanoma = tested on: SK-MEL-28 melanoma
UACC-62 melanoma = tested on: UACC-62 melanoma
K-562 leukemia = tested on: K-562 leukemia
UO-31 renal = tested on: UO-31 renal
A549 NSCLC = tested on: A549 NSCLC
UACC-257 melanoma = tested on: UACC-257 melanoma
LXFL 529 NSCLC = tested on: LXFL 529 NSCLC
HL-60(TB) leukemia = tested on: HL-60(TB) leukemia
CAKI-1 renal = tested on: CAKI-1 renal
RPMI-8226 leukemia = tested on: RPMI-8226 leukemia
SN12C renal = tested on: SN12C renal
MALME-3M melanoma = tested on: MALME-3M melanoma
CCRF-CEM leukemia = tested on: CCRF-CEM leukemia
M19-MEL melanoma = tested on: M19-MEL melanoma
LOX IMVI melanoma = tested on: LOX IMVI melanoma
EKVX NSCLC = tested on: EKVX NSCLC
SF-295 CNS = tested on: SF-295 CNS
KM12 colon = tested on: KM12 colon
OVCAR-5 ovarian = tested on: OVCAR-5 ovarian
M14 melanoma = tested on: M14 melanoma
SK-MEL-5 melanoma = tested on: SK-MEL-5 melanoma
ACHN renal = tested on: ACHN renal
HCC-2998 colon = tested on: HCC-2998 colon
OVCAR-4 ovarian = tested on: OVCAR-4 ovarian
SNB-75 CNS = tested on: SNB-75 CNS
HOP-62 NSCLC = tested on: HOP-62 NSCLC
SK-MEL-2 melanoma = tested on: SK-MEL-2 melanoma
A498 renal = tested on: A498 renal
MOLT-4 leukemia = tested on: MOLT-4 leukemia
COLO 205 colon = tested on: COLO 205 colon
SF-268 CNS = tested on: SF-268 CNS
786-0 renal = tested on: 786-0 renal
SK-OV-3 ovarian = tested on: SK-OV-3 ovarian

Q: What does the source list for `CC(=O)[CH-]C(=O)c1ccccc1.CC(=O)[CH-]C(=O)c1ccccc1.Cl.[O-]CCc1ccccn1.[O-]CCc1ccccn1.[Ti+4]`?
A: GI50 (HCT-15 colon): 46.2 µM; TGI (HCT-15 colon): > 100 µM; GI50 (SF-539 CNS): 29.8 µM; TGI (SF-539 CNS): 88 µM; GI50 (HOP-18 NSCLC): 36.2 µM; TGI (HOP-18 NSCLC): 94.8 µM; GI50 (HCT-116 colon): 18.9 µM; TGI (HCT-116 colon): 55.6 µM; GI50 (OVCAR-3 ovarian): 32.3 µM; TGI (OVCAR-3 ovarian): > 100 µM; GI50 (NCI-H23 lung): 24.7 µM; TGI (NCI-H23 lung): 53.8 µM; GI50 (OVCAR-8 ovarian): 30.1 µM; TGI (OVCAR-8 ovarian): > 100 µM; GI50 (KM20L2 colon): 36.2 µM; TGI (KM20L2 colon): > 100 µM; GI50 (IGROV1 ovarian): 27.2 µM; TGI (IGROV1 ovarian): 75.3 µM; GI50 (NCI-H522 lung): 27.8 µM; TGI (NCI-H522 lung): 70.6 µM; GI50 (TK-10 renal): 28.7 µM; TGI (TK-10 renal): 93.3 µM; GI50 (NCI-H226 lung): 18.7 µM; TGI (NCI-H226 lung): 78.3 µM; GI50 (SNB-19 CNS): 19.6 µM; TGI (SNB-19 CNS): 49 µM; GI50 (HT29 colon): 22.4 µM; TGI (HT29 colon): 77.1 µM; GI50 (SW-620 colon): 29.5 µM; TGI (SW-620 colon): > 100 µM; GI50 (DLD-1 colon): 30.4 µM; TGI (DLD-1 colon): > 100 µM; GI50 (SK-MEL-28 melanoma): 20.6 µM; TGI (SK-MEL-28 melanoma): 55.1 µM; GI50 (UACC-62 melanoma): 23.6 µM; TGI (UACC-62 melanoma): > 100 µM; GI50 (K-562 leukemia): 21 µM; TGI (K-562 leukemia): > 100 µM; GI50 (UO-31 renal): 17.4 µM; TGI (UO-31 renal): 47.4 µM; GI50 (A549 NSCLC): 27.8 µM; TGI (A549 NSCLC): 95.9 µM; GI50 (UACC-257 melanoma): 28.3 µM; TGI (UACC-257 melanoma): > 100 µM; GI50 (LXFL 529 NSCLC): 15.6 µM; TGI (LXFL 529 NSCLC): 38 µM; GI50 (HL-60(TB) leukemia): 21.2 µM; TGI (HL-60(TB) leukemia): 93.5 µM; GI50 (CAKI-1 renal): 44.1 µM; TGI (CAKI-1 renal): > 100 µM; GI50 (RPMI-8226 leukemia): 15.8 µM; TGI (RPMI-8226 leukemia): 58.4 µM; GI50 (SN12C renal): 36.1 µM; TGI (SN12C renal): > 100 µM; GI50 (MALME-3M melanoma): 18.7 µM; TGI (MALME-3M melanoma): 44.1 µM; GI50 (CCRF-CEM leukemia): 15.9 µM; TGI (CCRF-CEM leukemia): > 100 µM; GI50 (M19-MEL melanoma): 25.4 µM; TGI (M19-MEL melanoma): 75.3 µM; GI50 (LOX IMVI melanoma): 25.6 µM; TGI (LOX IMVI melanoma): > 100 µM; GI50 (EKVX NSCLC): 28.9 µM; TGI (EKVX NSCLC): 78.2 µM; GI50 (SF-295 CNS): 25.6 µM; TGI (SF-295 CNS): > 100 µM; GI50 (KM12 colon): 41.4 µM; TGI (KM12 colon): > 100 µM; GI50 (OVCAR-5 ovarian): 43.3 µM; TGI (OVCAR-5 ovarian): > 100 µM; GI50 (M14 melanoma): 22 µM; TGI (M14 melanoma): 70.5 µM; GI50 (SK-MEL-5 melanoma): 20 µM; TGI (SK-MEL-5 melanoma): 53.6 µM; GI50 (ACHN renal): 33.4 µM; TGI (ACHN renal): > 100 µM; GI50 (HCC-2998 colon): 26.9 µM; TGI (HCC-2998 colon): 83.6 µM; GI50 (OVCAR-4 ovarian): 41.4 µM; TGI (OVCAR-4 ovarian): > 100 µM; GI50 (SNB-75 CNS): 23.9 µM; TGI (SNB-75 CNS): 89.2 µM; GI50 (HOP-62 NSCLC): 23.6 µM; TGI (HOP-62 NSCLC): 47.7 µM; GI50 (SK-MEL-2 melanoma): 19.2 µM; TGI (SK-MEL-2 melanoma): 38.9 µM; GI50 (A498 renal): 28.8 µM; TGI (A498 renal): 75.1 µM; GI50 (MOLT-4 leukemia): 13.3 µM; TGI (MOLT-4 leukemia): 49.3 µM; GI50 (COLO 205 colon): 29.3 µM; TGI (COLO 205 colon): 72.2 µM; GI50 (SF-268 CNS): 25.8 µM; TGI (SF-268 CNS): 75.4 µM; GI50 (786-0 renal): 21.2 µM; TGI (786-0 renal): 57 µM; GI50 (SK-OV-3 ovarian): 39.5 µM; TGI (SK-OV-3 ovarian): > 100 µM
